In US11912785B2, “Peptide compositions for slowing degradation of vitamin mineral supplements, foods, pharmaceutical and cosmetics” (priority 2017, dated 2024):
One block for each molecule: values may come before it. No end group written: not given here.

Legend:
[1] = Decay of sodium ascorbate in HEPES pH 7.2 with 63 μM cupric sulfate; format: physicochemical
Procedure: Example 11 The effect of 1,1,1-Ala-Asp-Asp on the decay of sodium ascorbate in 10 mM HEPES pH 7.2 at 37 was compared with 1,1,1-triaspartate in the presence of 63 μM cupric sulfate (equivalent to 2 mg of elemental copper per 500 mL). […] This difference is somewhat offset by the ˜12% lower molecular weight of the former.

[2] = USP type 2 dissolution of Product #1a with peptide in the medium; conditions: for ascorbic acid recovered / maintained (in words): 0.25 mM, 45 min
Procedure: (§1) The dissolution studies described herein used a U.S. Pharmacopeia (USP) type 2 apparatus with 500 ml distilled H2O at 37° C. stirred at 50 RPM. […] Oxygen concentration was monitored with a Clarke electrode calibrated against argon and air sparged water at 37 C. The disappearance of several components was gauged against a mixture of pure standards of known concentration.
Product #1a also contained caffeine.

[3] = Decay of 5-MTHF in HEPES pH 7.2 with cupric sulfate and peptide; format: physicochemical; conditions: for half-life of 5-MTHF: 150 μM cupric sulfate
Procedure: (§2) Aqueous solutions of air saturated buffer, peptide, one or more vitamins, and metal salt (e.g. ferrous chloride or cupric sulfate) were combined and incubated at 37 C, unless otherwise stated. Samples were injected into the HPLC system as a function of time and monitored by a photodiode array detector.

[4] = Effect of cupric sulfate on vitamin B12, thiamine, folic acid and sodium ascorbate in MES pH 6.2; format: physicochemical; conditions: 3 mM peptide; 10 mM MES pH 6.2, 150 μM cupric sulfate
Procedure: In the presence of 3 mM 1,1,1-triaspartate (as the tetra-sodium salt) the loss of Vitamin B12 was limited to about 20% even after 2 hours. Thiamine also rapidly disappeared by 40% over the first 26 minutes and then remained constant in the absence of an aspartate peptide. However, with 3 mM Asp-Asp-Asp included only 8% was lost at 36 min.

[5] = Effect of cupric sulfate on folic acid plus sodium ascorbate in various buffers; conditions: for initial ascorbate lost after 2 hours: 10 mM HEPES pH 7.2, 150 μM cupric sulfate
Procedure: as §2
Reactions were continuously but slow sparged with air so that oxygen would not become limiting.

[6] = USP type 2 dissolution of Product #1b with copper added as CuSO4 and peptide; format: physicochemical
Procedure: as §1

[7] = Decomposition of 5-MTHF in 1 mM HCl with cupric sulfate; format: physicochemical; conditions: 3 mM peptide, 150 μM cupric sulfate, 37 C
Procedure: The decomposition of 5-MTHF is slower in acidic solutions than at neutral pH, and this was found even in the presence of cupric ions. […] With 3 mM 1,1,1-triaspartic free acid also present the time to half decomposition was increased to around 30 minutes.

[8] = Water uptake and handling of peptide salts on exposure to atmosphere or humidity; format: physicochemical; conditions: for handling state after exposure to the atmosphere / weight gain (water) when left open to the atmosphere: ambient
Procedure: One such matrix is microcrystalline cellulose which is commonly used as an excipient in vitamin and mineral products. A method of combining the peptide salt with the excipient was also developed in which the former is dissolved in a suitable solvent, for example water, the excipient added with stirring, and removing the solvent from the mixture, for example by rotary evaporation under reduced pressure or lyophilization.
The resulting material was crushed to pass through a 200 mesh sieve.
The precipitate was resuspended in 0.5 ml ice-cold water, centrifuged again, and the second supernate discarded.
The precipitate was resuspended in 0.5 ml ice-cold water, recentrifuged, and the second supernate discarded. […] This was centrifuged and dried under high vacuum over P2O5.

[9] = 3 mM peptide, 3 mM ferrous chloride, 40 mM MES pH 6.2
Procedure: as §2

[10] = product #2; 1 mM peptide
Procedure: as §1

[11] = 3 mM peptide, 50 mM MES pH 5.5, 150 μM cupric sulfate
[12] = 2 mM peptide, 25 μM 5-MTHF, 10 mM HEPES pH 7.2, 37 C

Molecule: 1,1,1-Ala-Asp-Asp
- effectiveness compared with triaspartic acid on a molar basis [1]: about half as effective
- 1st-order rate of ascorbate loss compared with Asp-Asp-Asp ([1]; 0.25 mM peptide, 63 μM cupric sulfate, 10 mM HEPES pH 7.2, 37): almost twice as fast

Molecule: N[C@@H](CC(=O)O)C(=O)O [aspartic acid, reference compound]
- rate of oxygen consumption compared with no peptide ([2]; Product #1a, 0.25 mM peptide): no improvement
- ascorbic acid recovered / maintained (in words) ([2]; Product #1a): no improvement

- EC50 ([6]; copper added as CuSO4, peptide 0.05 to 0.5 mM, hyperbolic fit, read-out: concentration required for 50% of maximal effectiveness in preventing ascorbate loss): ~50 µM
Molecule: Asp-Asp-Asp
- extent of caffeine oxidation to 1,3,7-trimethyluric acid compared with no peptide ([2]; Product #1a, 0.25 mM peptide): more than halved
- folic acid in filtrate, of the labeled amount, 10 minute sample ([2]; Product #1a, 0.25 mM peptide): about 55%
- folic acid in filtrate, of the labeled amount, 45 minute sample ([2]; Product #1a, 0.25 mM peptide): about 70%
- p-aminobenzoyl-glutamate in the final sonicated sample compared with absence of peptide ([2]; Product #1a, 0.25 mM peptide): decreased to half
- thiamine present at 45 minutes, of labeled content ([2]; Product #1a, 0.25 mM peptide): 104%
- thiamine present at 45 minutes, of the actual content of the tablets ([2]; Product #1a, 0.25 mM peptide): 83%
- half-life of 5-MTHF (in words) ([3]; 0.5 mM peptide): longer than Asp2
- thiamine lost at 36 min [4]: 8%
- folic acid recovered after 82 minutes [5, 11]: more than 50%
- time until ascorbate completely consumed [5, 11]: 47 min
- concentration required for half maximal effect in preventing loss of ascorbate ([6]; 1 mg of copper added as CuSO4, compared with 2 mg): somewhat lower concentration
- time to half decomposition of 5-MTHF [7]: around 30 minutes

Molecule: Asp-Asp-Asp tetrasodium salt [tetra-sodium 1,1,1-triaspartate, Tetra-sodium-1,1,1-triaspartate]
- ascorbic acid recovered after 45 min, higher than with water only ([2]; Product #1a, 0.125 mmole peptide in 500 mL (0.25 mM), initial pH ~6.5, 37° C.): about 16 fold
- oxygen remaining after 45 min, part of the original concentration ([2]; Product #1a, 0.25 mM peptide): about a third
- rate of oxygen consumption compared with no peptide ([2]; Product #1a, 0.25 mM peptide): dramatically decreased
- handling state after exposure to the atmosphere ([8]; open to the atmosphere): became sticky
- weight gain (water) when left open to the atmosphere ([8]; open to the atmosphere): 14%
- half-life of 5-MTHF [3, 12]: 3.3 h
- time without significant loss of 5-MTHF [9]: about 50 minutes
- decrease of 5-MTHF thereafter ([9]; after about 50 minutes): about 17 % per hour
- loss of Vitamin B12 after 2 hours [4]: about 20%
- initial ascorbate lost after 2 hours ([5]; 1 mM peptide): 33%
- initial ascorbate lost after 2 hours ([5]; 3 mM peptide): 18%
- ascorbate remaining by 32 minutes ([5]; 3 mM peptide, 10 mM MES pH 6.2, 150 μM cupric sulfate, air sparged): 35%
- increase of average recovery of ascorbic acid at 45 minutes over no peptide [10]: 16%
- increase of average recovery of thiamine at 45 minutes over no added peptide [10]: 20%

- weight gain (water) when left open to the atmosphere ([8]; open to the atmosphere): ~10%
Molecule: Calcium1.5-1,1,1-triaspartate [Example D]
- handling state after 24 hours at 90% RH ([8]; 90% RH, 24 hours): clumped slightly, but was easy to break up and was not sticky
- handling state after exposure to the atmosphere ([8]; open to the atmosphere): remained free flowing flakes that were never sticky

- weight gain (water) when left open to the atmosphere ([8]; open to the atmosphere): 13%
Molecule: Ferrous 1,1,1-triaspartate [Example P]
- color / oxidation when open to air via a drying tube ([8]; open to air via a drying tube): did not change color or significantly oxidize
- color / oxidation when kept open to the atmosphere ([8]; open to the atmosphere, several days): became dark brown due to partial oxidation to iron(III)

Molecule: N-acetyl-1,1,1-triaspartic acid [reference compound]
- ability to inhibit oxidative destruction of other multivitamin components ([2]; test conditions not stated): lack of effectiveness

Molecule: penta-sodium 1,1,1,1-tetraaspartate (DDDD; also: penta-sodium salt)
- effectiveness compared with triaspartic acid on a molar basis [3]: just as effective on a molar basis
- half-life of 5-MTHF [3, 12]: 2.97 h

Molecule: tri-sodium 1,1,1-His-Asp-Asp [reference compound]
- maintenance of ascorbate or thiamine, diminishing oxygen consumption, or oxidation of other components ([2]; Product #1a, 0.25 mM peptide, pH ~6.5): No improvement

Molecule: tri-sodium 1,1-diaspartate
- profile of folic acid appearance in solution ([2]; Product #1a, 0.25 mM peptide): greater than without any peptide, and similar to that liberated by 0.05 mM Asp-Asp-Asp
- profile of p-aminobenzoyl-glutamate formation ([2]; Product #1a, 0.25 mM peptide): suppressed in comparison to without any peptide, and similar to 0.05 mM Asp-Asp-Asp
- profile of thiamine appearance in solution ([2]; Product #1a, 0.25 mM peptide): not significantly different than without peptide
- rate of oxygen consumption compared with no peptide ([2]; Product #1a, 0.25 mM peptide): less than without a peptide
- ascorbic acid recovered / maintained (in words) ([2]; Product #1a): greater than with no Asp2 but somewhat less than in the presence of 0.25 mM Asp-Asp-Asp
- half-life of 5-MTHF [3, 12]: 1.2 h
- half-life of 5-MTHF ([3]; 3 mM peptide, HEPES pH 7.2, 37 C): 1.45 h
- half-life of 5-MTHF ([3]; 4 mM peptide, HEPES pH 7.2, 37 C): 1.67 h
